# Experimental data from patent US11434270B2, “Protein for neutralizing programmed necrocytosis promotion antibody, and application of protein” (SHANGHAI JW INFLINHIX CO., LTD., priority 2015, dated 2022).
# Residue numbers refer to the chain shown, from its start.
# B1: 244-12: cell necrosis-promoting monoclonal antibody binding TNF epitope QLVVPSE; light chain SEQ ID NO: 9, heavy chain SEQ ID NO: 10 (antibody, listed as Homo sapiens)
# heavy: QIQLVQSGPELKKPGETVKISCKASGYTFTNYGMNWVKQAPGKGLKWMGWINTYTGEPTYADDFKGRFAFSLETSANTAYLQINNLRNEGMATYFCARHYRYAWFPYWGQGTLVTVSAAKTTPPSVYPLAPGCGDTTGSSVTLGCLVKGYFPESVTVTWNSGSLSSSVHTFPALLQSGLYTMSSSVTVPSSTWPSQTVTCSVAHPASSTTVDKKLEPSGPISTINPCPPCKECHKCPAPNLEGGPSVFIFPPNIKDVLMISLTPKVTCVVVDVSEDDPDVQISWFVNNVEVHTAQTQTHREDYNSTIRVVSTLPIQHQDWMSGKEFKCKVNNKDLPSPIERTISKIKGLVRAPQVYILPPPAEQLSRKDVSLTCLVVGFNPGDISVEWASNGHTEENYKDTAPVLDSDGSYFIYSKLNMKTSKWEKTDSFSCNVRHEGLKNYYLKKTISRSPGK
# light: DIQMTQSPASLSASVGETVTITCRASGNIHIYLAWYQQKQGKSPQLLVYNAKTLADGVPSRFSGSGSGTQYSLKINSLQPEDFGSYYCQHFWSIPWTFGGGTKLEIKRADAAPTVSIFPPSSEQLTSGGASVVCFLNNFYPKDINVKWKIDGSERQNGVLNSWTDQDSKDSTYSMSSTLTLTKDEYERHNSYTCEATHKTSTSPIVKSFNRNEC
# B2: QLQWLNRRANALLANGVELRDNQLVVPSEGLYLIYSQVLFKGQGCPSTHVLLTHTISRIAVSYQTKVNLLSAIKSPCQRE (protein)
# chain: QLQWLNRRANALLANGVELRDNQLVVPSEGLYLIYSQVLFKGQGCPSTHVLLTHTISRIAVSYQTKVNLLSAIKSPCQRE
# B3: QLQWLNRRANALLANGVELRDNQLVVPSEGLYLIYSQVLFKGQGCPSTHVLLTHTISRIAVFHQTKVNLLSAIKSPCQRE (protein)
# chain: B2 chain with S62F, Y63H
# How the values were obtained:
# L929 cells = experiment: Apoptosis and necrosis test (live/dead staining, active caspase-3, flow cytometry) in L929 cells; assay type: cell-based, mouse
# Description: (§1) In the presence of TNF or TNF peptide with or without 20 μM z-VAD-FMK (R & D Systems, Minneapolis, Minn.) or 20 μM Necrotatin-1 (PeproTech, Rocky Hill, N.J.) (Immunotools, Friesoythe, Germany), cells were incubated overnight (or the time shown in the incubation diagram). In some experiments, TNF was co-cultured with cells and the monoclonal antibody with indicated concentration or synovial fluid. Cells were stained using live/dead cell staining kit (Invitrogen, Paisley, UK) according to the manufacturer's manual and fixed using a cytofix/cytoperm fixation/permeabilization solution kit (BD Pharmingen, Oxford, UK). Intracellular staining was then performed using FITC-conjugated anti-caspase-3 antibody (Cell Signaling Technology, Danvers, Mass., USA). Cells were harvested by CyAn flow cytometer (Beckman Coulter, Fullerton, Calif.), and data were analysed by Flowjo (Tree Star Inc. Ashland, Oreg.).
# [1] = test system: cell necrosis caused by cell necrosis-promoting antibody; experiment: Inhibition of cell necrosis caused by cell necrosis-promoting antibody; assay type: cell-based
# Description: as §1
# cells [2] = experiment: Apoptosis and necrosis test, cell line not stated; assay type: cell-based; conditions: summary table
# Description: as §1
# [3] = test system: monoclonal antibody 244-12; experiment: Competitive inhibition ELISA of TNF binding to monoclonal antibody 244-12; conditions: plates coated with TNF, peptide added, then 244-12
# Description: (§2) ELISA plates were coated with 2 μg/ml of TNF at 4° C. overnight, or at 37° C. for 2 hours, and then incubated with a monoclonal antibodies at 37° C. for 1 hour. A second antibody conjugated to HRP was used to detect the reaction. For the inhibition assay, TNFR1 or synovial fluid was added together with the monoclonal antibody.
# METHODS: plates were coated with TNF, and the indicated peptides were added to each well, and then the monoclonal antibody 244-12 was added.
# cells [4] = experiment: Stimulation of cell proliferation; assay type: cell-based; conditions: summary table
# [5] = test system: cell necrosis-promoting antibody (244-12); experiment: ELISA binding of polypeptide to cell necrosis-promoting antibody; conditions: for binding to cell necrosis-promoting antibodies: summary table
# Description: (§3) However, the reaction with synovial fluid of a control patient without autoantibodies (SF010) was negative. ELISA plates were coated with 2 μg/ml of P11-17, blocked with BSA, incubated with 244-12, SF024, SF045, SF010 at room temperature for 1 hour, and then identified with horseradish peroxidase […] anti-mouse or human IgG secondary antibody.
# TNF receptors = experiment: L929 cell immunofluorescence microscopy: TNF/antibody binding to cell surface TNF receptors; assay type: cell-based, mouse
# Description: At room temperature, 20 ng/ml of TNF and 2 μg/ml of mAb M26 or 244-12 were incubated for 1 hour. The mixture of TNF/M26 or TNF/244-12 were incubated on ice with L929 cells grown on coverslip for an another 15 minutes. The cells were fixed with 4% paraformaldehyde (PBS formulation) were for 10 minutes, blocked with phosphate buffer containing 0.5% BSA and 0.1% cold water fish gelatin for 15 minutes, and then incubated with rabbit anti-TNFR1 antibody (Abeam) for 1 hour. The cells were washed with PBS and then incubated with the relevant secondary antibody coupled to Alexa Fluor 488 or Alexa Fluor 568 (Invitrogen). Then the sample washed with PBS was mounted with Gelvatol/DABCO (Sigma-Aldrich). DNA was counterstained with DAPI (Sigma-Aldrich). All samples were analyzed by fluorescence microscopy at 60× using Nikon Eclipse 80i. Images were taken with NIS-Elements AR3.0 software using Hamamatsu camera.
# [6] = test system: C2812 cells (chondrocytes); experiment: Apoptosis test (active caspase-3) in C2812 chondrocytes; assay type: cell-based, human; conditions: antibody added to TNF
# Description: as §1
# TNF = target: T1, TNF (Homo sapiens, UniProt P01375); experiment: ELISA screening of monoclonal antibodies for binding to TNF; conditions: screening of 33 monoclonal antibodies
# T1 construct: purchased Immunotools
# Description: as §2
# [7] = test system: cell necrosis-promoting antibodies present in joint fluid of arthritis patients; experiment: ELISA binding of polypeptide to autoantibodies in synovial fluid of arthritis patients; parameters: species or system human; conditions: plate coated with 2 μg/ml of P11-17
# Description: as §3
# T1 sequence (P01375 whole entry): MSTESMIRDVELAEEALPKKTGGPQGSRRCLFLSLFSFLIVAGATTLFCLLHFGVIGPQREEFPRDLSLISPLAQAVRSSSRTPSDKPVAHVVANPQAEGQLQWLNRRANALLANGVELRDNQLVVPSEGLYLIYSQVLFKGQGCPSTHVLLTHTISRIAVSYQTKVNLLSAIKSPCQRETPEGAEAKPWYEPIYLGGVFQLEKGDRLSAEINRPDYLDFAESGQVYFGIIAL
Molecule,Inhibition of cell necrosis ([1]; summary table),Apoptosis (cells [2]),Necrosis (cells [2]),competitive inhibition of binding of TNF to mAb 244-12 [3],Stimulation of cell proliferation (cells [4]),binding to cell necrosis-promoting antibodies [5],further results
"CN1C(=O)C(Cc2c[nH]c3ccccc23)NC1=S (stereo not drawn) [Nec-1, Necrotatin-1, reference compound]",–,–,–,–,–,–,"necrosis induced by antibody 244-12 + TNF (L929 cells; Nec-1 added to 244-12+TNF, necrosis converted into apoptosis): can be inhibited"
DNQLVVPSEG [P13-1],Yes,no,no,significantly inhibited,no,Yes,–
NQLVVPSEGL [P13-2],Yes,no,no,significantly inhibited,no,Yes,–
QLVVPSEGLY [P13-3],Yes,no,no,significantly inhibited,no,Yes,–
RDNQLVVPSE [P12-10],Yes,no,no,significantly inhibited,no,Yes,–
Tumor necrosis factor α [TNFα],no,Yes,Yes,–,Yes,Yes,cell fate of L929 cells (L929 cells; TNF alone): apoptosis
B1,–,–,–,–,–,–,"TNF-induced apoptosis (expression of active caspase-3) (L929 cells; L929 cells, antibody added to TNF): blocked; cell fate of L929 cells (L929 cells; antibody added together with TNF): necrosis; direct binding of antibody to cell surface (TNF receptors; absence of TNF): cannot directly bind to cell surface; effect of antibody binding to TNF on binding of TNF to TNF receptors (TNF receptors; confocal micrograph, L929 cells, TNF present): did not affect; TNF-induced apoptosis (expression of active caspase-3) [6]: blocked; binding to TNF by ELISA test (TNF): strongest"
B2,Yes,no,no,–,no,Yes,"Inhibition of cell necrosis ([1]; necrosis caused by purified 244-12 or by antibody in patients' synovial fluid (SF002, SF045)): can effectively inhibit cell necrosis; reaction with synovial fluid of a control patient without autoantibodies ([7]; sample SF010): negative; binding to cell necrosis-promoting antibodies in joint fluid of arthritis patients ([7]; samples SF024, SF045): bind; binding to purified cell necrosis-promoting antibody (244-12) ([5]; ELISA plate coated with 2 μg/ml of P11-17): can bind"
B3,Yes,no,no,–,no,Yes,–
